Measured values reported in ChEMBL document CHEMBL1201862, “PubChem BioAssay data set” (2004).
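Protocol summary: plate cells (96-well), add compound at 5 concentrations, incubate 48 h, interpolate endpoints linearly. GI50 = concentration required for 50% inhibition of growth.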 Calls of active or inactive are those of the source. Cut-off read from the data, not from the text of the source: active = GI50 up to about 1.1 µM and inactive = higher.

How the values were obtained:
Assay in all cases: NCI anticancer screen, dose series, 48 h
SW-620 = system: SW-620
NCI-H460 = system: NCI-H460
786-0 = system: 786-0
HOP-92 = system: HOP-92
OVCAR-8 = system: OVCAR-8
Hs-578T = system: Hs-578T
OVCAR-4 = system: OVCAR-4
SK-MEL-28 = system: SK-MEL-28
BT-549 = system: BT-549
HL-60 = system: HL-60
UACC-62 = system: UACC-62
TK-10 = system: TK-10
CAKI-1 = system: CAKI-1
SF-295 = system: SF-295
IGROV-1 = system: IGROV-1
NCI-H23 = system: NCI-H23
SK-MEL-5 = system: SK-MEL-5
MCF7 = system: MCF7
SNB-75 = system: SNB-75
COLO 205 = system: COLO 205

Measured: GI50

O=c1[nH]c2nc(S)nc(S)c2[nH]1
inactive: SW-620 > 100 µM | NCI-H460 > 100 µM | 786-0 > 100 µM | HOP-92 > 100 µM | OVCAR-8 > 100 µM | Hs-578T > 100 µM | OVCAR-4 > 100 µM | SK-MEL-28 > 100 µM | BT-549 > 100 µM | HL-60 > 100 µM | UACC-62 > 100 µM | TK-10 > 100 µM | CAKI-1 > 100 µM | SF-295 > 100 µM | IGROV-1 > 100 µM | NCI-H23 > 100 µM | SK-MEL-5 > 100 µM

COc1ccc(Nc2nc3ccccc3nc2C(=O)O)cc1OC
inactive: SW-620 > 100 µM | NCI-H460 45.8 µM | MCF7 40.3 µM | 786-0 73.6 µM | HOP-92 27.5 µM | OVCAR-8 > 100 µM | SNB-75 69.2 µM | Hs-578T > 100 µM | SK-MEL-28 50.2 µM | BT-549 52.7 µM | HL-60 88.1 µM | UACC-62 60.8 µM | TK-10 82.8 µM | COLO 205 > 100 µM | CAKI-1 29.6 µM | SF-295 33.2 µM | IGROV-1 98.4 µM | NCI-H23 80.4 µM | SK-MEL-5 28.5 µM

Cc1ccc(C2=NOC(=O)[C@@H]3CCCC[C@@H]23)cc1
inactive: SW-620 > 100 µM | MCF7 > 100 µM | 786-0 > 100 µM | OVCAR-8 > 100 µM | SNB-75 > 100 µM | Hs-578T > 100 µM | OVCAR-4 > 100 µM | SK-MEL-28 > 100 µM | BT-549 > 100 µM | HL-60 > 100 µM | UACC-62 > 100 µM | TK-10 > 100 µM | COLO 205 > 100 µM | CAKI-1 > 100 µM | SF-295 > 100 µM | IGROV-1 > 100 µM | NCI-H23 > 100 µM | SK-MEL-5 > 100 µM

CCOC(=O)C(=[N+]=[N-])C(=O)C[N+]12CCN(CC1)CC2
inactive: SW-620 > 100 µM | NCI-H460 > 100 µM | 786-0 > 100 µM | HOP-92 > 100 µM | OVCAR-8 > 100 µM | SNB-75 > 100 µM | Hs-578T > 100 µM | OVCAR-4 > 100 µM | SK-MEL-28 > 100 µM | BT-549 > 100 µM | UACC-62 > 100 µM | TK-10 > 100 µM | COLO 205 > 100 µM | CAKI-1 > 100 µM | SF-295 > 100 µM | IGROV-1 > 100 µM | NCI-H23 > 100 µM | SK-MEL-5 > 100 µM

CC(=O)c1c2c(cc3c1CC1(Cc4cc5c(cc4C1=O)CCC5)C3)CCC2 (centres undefined)
inactive: SW-620 85.5 µM | NCI-H460 42.6 µM | MCF7 35.7 µM | 786-0 > 54.5 µM | OVCAR-8 71.9 µM | SNB-75 > 78 µM | Hs-578T > 100 µM | OVCAR-4 38.5 µM | SK-MEL-28 > 100 µM | BT-549 27 µM | HL-60 7.21 µM | UACC-62 > 100 µM | TK-10 > 66.1 µM | COLO 205 64.6 µM | CAKI-1 17.3 µM | SF-295 42.5 µM | IGROV-1 > 100 µM | NCI-H23 30.9 µM | SK-MEL-5 12.1 µM

CC1(C)C(C#N)C1C1=C(N2CCOCC2)[C@]2(C)C(OC(=O)c3ccccc3)CC[C@@H]2C1 (some centres undefined)
inactive: SW-620 > 100 µM | NCI-H460 > 100 µM | MCF7 72.6 µM | 786-0 > 100 µM | HOP-92 61.2 µM | OVCAR-8 > 100 µM | SNB-75 20.5 µM | Hs-578T > 100 µM | OVCAR-4 > 100 µM | SK-MEL-28 > 100 µM | BT-549 55.1 µM | UACC-62 > 100 µM | TK-10 > 100 µM | COLO 205 95.3 µM | CAKI-1 > 100 µM | SF-295 > 100 µM | IGROV-1 > 100 µM | NCI-H23 > 100 µM | SK-MEL-5 29.8 µM

COc1ccc2c(-c3ccc(O)cc3)c(Oc3ccc(Cl)cc3)c(=O)oc2c1
inactive: SW-620 5.35 µM | NCI-H460 5.2 µM | MCF7 3.63 µM | 786-0 7.85 µM | HOP-92 7.87 µM | OVCAR-8 > 34 µM | SNB-75 13.2 µM | Hs-578T 5.62 µM | OVCAR-4 5.77 µM | SK-MEL-28 7.71 µM | BT-549 8.75 µM | UACC-62 4.98 µM | TK-10 5.48 µM | COLO 205 6.08 µM | CAKI-1 2.81 µM | SF-295 6.43 µM | IGROV-1 3.03 µM | NCI-H23 2.79 µM | SK-MEL-5 3.48 µM
